According to patent US8637511B2, “Aminopyrimidines useful as kinase inhibitors” (Vertex Pharmaceuticals Incorporated, priority 2005, dated 2014):
Values joined by “and” are separate entries in the source; they are usually repeats but may differ in a detail not shown here. Equal values may be shown once. Read-outs that look alike come from different tables or passages of the source.

What was measured:
[1] = target: T1, Aurora-2 (Aurora A) (Homo sapiens, UniProt O14965); test: Aurora-2 (Aurora A) inhibition assay, coupled enzyme; format: biochemical
T1 sequence (O14965 1-403): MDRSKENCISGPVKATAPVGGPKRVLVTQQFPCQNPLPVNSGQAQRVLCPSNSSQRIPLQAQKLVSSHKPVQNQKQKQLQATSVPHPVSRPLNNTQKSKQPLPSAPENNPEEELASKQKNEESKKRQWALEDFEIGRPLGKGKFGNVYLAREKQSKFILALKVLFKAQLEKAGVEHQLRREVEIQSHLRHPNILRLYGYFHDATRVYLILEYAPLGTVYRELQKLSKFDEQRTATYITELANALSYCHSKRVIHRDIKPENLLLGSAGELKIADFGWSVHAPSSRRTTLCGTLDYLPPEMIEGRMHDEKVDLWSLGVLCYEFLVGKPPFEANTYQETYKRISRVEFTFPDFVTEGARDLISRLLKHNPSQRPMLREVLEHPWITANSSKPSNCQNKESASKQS
Procedure, shortened: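 These rates came from NADH consumption coupled through pyruvate kinase and lactate dehydrogenase (100 mM Hepes pH 7.5, 10 mM MgCl2, 300 μM NADH). Aurora-2 was present at 40 nM, and the reaction ran at 30 °C after a 10 min preincubation.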

[2] = target: Aurora-1 (Aurora B) (Homo sapiens, UniProt Q96GD4); test: Aurora-1 (Aurora B) inhibition assay (radiometric); format: biochemical; settings: read-out: Aurora B kinase Ki value
Aurora-1 (Aurora B), sequence (Q96GD4 whole entry): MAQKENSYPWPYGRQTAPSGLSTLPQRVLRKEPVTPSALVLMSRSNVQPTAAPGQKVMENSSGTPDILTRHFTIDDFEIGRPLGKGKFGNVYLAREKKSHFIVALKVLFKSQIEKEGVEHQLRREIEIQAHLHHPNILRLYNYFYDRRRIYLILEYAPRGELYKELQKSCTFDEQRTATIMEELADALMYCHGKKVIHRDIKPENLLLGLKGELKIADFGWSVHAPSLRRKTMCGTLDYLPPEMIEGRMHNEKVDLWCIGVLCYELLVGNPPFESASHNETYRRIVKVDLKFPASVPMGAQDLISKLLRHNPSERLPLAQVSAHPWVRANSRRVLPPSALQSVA
Procedure, shortened: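 Ki values come from non-linear regression of background-corrected initial-rate data. The enzyme was preincubated 10 min at 25° C with compound, then reacted 3 h with 800 μM (final) [γ-^33P]-ATP in HEPES pH 7.5/MgCl2/BSA/glycerol buffer. The reaction was stopped with phosphoric acid and substrate-bound ^33P counted on phosphocellulose.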

[3] = read-out: Aurora A kinase Ki value

**Q.** What does the source list for `Cc1ccc2cc(Sc3nc(Nc4cc(C)[nH]n4)cc(N4CC(C5CCC(F)C5)C4)n3)ccc2n1` (stereo not drawn) [Compound 198]?
**A.** Ki [1, 3]: 1 to 5 nM; Ki [2]: 10 to 50 nM and < 25 nM

**Q.** `CC(=O)Nc1cccc(Sc2nc(Nc3cc(C)n[nH]3)cc(N3CC(F)(C4CC4)C3)n2)c1` [Compound 188] was tested. Which Ki [1, 3] did it give?
**A.** 5 to 200 nM

**Q.** What about the Ki [2] of the same molecule?
**A.** 10 to 50 nM

**Q.** How did the Ki [1] turn out when `Cc1cc(Nc2cc(N3CC(C)(O)C3)nc(Sc3ccc(NC(=O)c4ccccc4C(F)(F)F)cc3)n2)[nH]n1` [Compound 115] was run?
**A.** ≤ 1 nM

**Q.** What about the Ki [2] of the same molecule?
**A.** ≤ 10 nM

**Q.** Which Ki [1, 3] does the source give for `Cc1cc(Nc2cc(N3CC(N4CCCC4)C3)nc(Sc3ccc4ncccc4c3)n2)n[nH]1` [Compound 159] here?
**A.** 1 to 5 nM

**Q.** And the Ki [2]?
**A.** ≤ 10 nM

**Q.** For `Cc1cc(Nc2cc(N3CC(N4CCOCC4)C3)nc(Sc3ccc(NC(=O)CC(F)(F)F)cc3)n2)[nH]n1` [Compound 199], which Ki [1, 3] is on record?
**A.** ≤ 1 nM

**Q.** And the Ki [2]?
**A.** ≤ 10 nM

**Q.** `Cc1cc(Nc2cc(N3CCC3)nc(Sc3ccc(NC(=O)C4CC4(F)F)cc3)n2)[nH]n1` (stereo not drawn) [Compound 112] was tested. Which Ki [1, 3] did it give?
**A.** 1 to 5 nM

**Q.** And the Ki [2]?
**A.** 10 to 50 nM and < 25 nM

**Q.** With `Cc1cc(Nc2cc(N3CCC3)nc(Sc3ccc(NC(=O)c4ccccc4N(C)C)cc3)n2)[nH]n1` [Compound 124] as the molecule, how does the Ki [1, 3] read?
**A.** 5 to 200 nM

**Q.** What about the Ki [2] of the same molecule?
**A.** 50 to 2000 nM

**Q.** How did the Ki [1, 3] turn out when `CCC(=O)Nc1ccc(Sc2nc(Nc3cc(C4CC4)n[nH]3)cc(N3CC(N4CCOCC4)C3)n2)cc1` [Compound 78] was run?
**A.** ≤ 1 nM

**Q.** And the Ki [2]?
**A.** ≤ 10 nM

**Q.** With `COC1CN(c2cc(Nc3cc(C)n[nH]3)nc(Sc3ccc(NC(=O)c4ccccc4C(F)(F)F)cc3)n2)C1` [Compound 126] as the molecule, how does the Ki [1, 3] read?
**A.** ≤ 1 nM

**Q.** What about the Ki [2] of the same molecule?
**A.** ≤ 10 nM

**Q.** How did the Ki [1, 3] turn out when `CCCNC(=O)Nc1ccc(Sc2nc(Nc3cc(C)[nH]n3)cc(N3CCC3)n2)cc1` [Compound 73] was run?
**A.** 5 to 200 nM

**Q.** And the Ki [2]?
**A.** 50 to 2000 nM

**Q.** What does the source list for `Cc1cc(Nc2cc(N3CC(N4CCOCC4)C3)nc(Sc3ccc(NC(=O)C4(C(F)(F)F)CC4)cc3)n2)[nH]n1` [Compound 191]?
**A.** Ki [1, 3]: ≤ 1 nM; Ki [2]: ≤ 10 nM

**Q.** How did the Ki [1, 3] turn out when `O=C(CC(F)(F)F)Nc1ccc(Sc2nc(Nc3cc[nH]n3)cc(N3CC(F)(C4CC4)C3)n2)cc1` [Compound 148] was run?
**A.** 1 to 5 nM

**Q.** And the Ki [2]?
**A.** 50 to 2000 nM

**Q.** Which results are given for `Cc1cc(Nc2cc(N3CCC3)nc(Sc3ccc(NS(C)(=O)=O)cc3)n2)[nH]n1` [Compound 150]?
**A.** Ki [1, 3]: 5 to 200 nM; Ki [2]: 50 to 2000 nM

**Q.** What does the source list for `CCC(=O)Nc1ccc(Sc2nc(Nc3cc(C)n[nH]3)cc(N3CC(C)(OC(C)(C)C)C3)n2)cc1` [Compound 96]?
**A.** Ki [1, 3]: 1 to 5 nM; Ki [2]: 10 to 50 nM and < 25 nM

**Q.** For `Cc1cc(Nc2cc(N3CC(F)(C4CC4)C3)nc(Sc3ccc4nc(C(F)(F)F)cn4c3)n2)[nH]n1` [Compound 190], which Ki [1, 3] is on record?
**A.** 1 to 5 nM

**Q.** And the Ki [2]?
**A.** 10 to 50 nM

**Q.** Which Ki [1, 3] does the source give for `Cc1cc(Nc2cc(N3CCC3)nc(Sc3ccc(NC(=O)c4ccncc4C(F)(F)F)cc3)n2)[nH]n1` [Compound 146] here?
**A.** ≤ 1 nM

**Q.** What about the Ki [2] of the same molecule?
**A.** ≤ 10 nM

**Q.** What does the source list for `Cc1cc(Nc2cc(N3CCC3)nc(Sc3ccc(NC(=O)c4ccc(CN(C)C)cc4)cc3)n2)[nH]n1` [Compound 137]?
**A.** Ki [1, 3]: 5 to 200 nM; Ki [2]: 50 to 2000 nM

**Q.** How did the Ki [1, 3] turn out when `Cc1cc(Nc2cc(N3CC(F)(C4CC4)C3)nc(Sc3ccc4nc(C(F)(F)F)[nH]c4c3)n2)[nH]n1` [Compound 202] was run?
**A.** 1 to 5 nM

**Q.** And the Ki [2]?
**A.** 10 to 50 nM and < 25 nM

**Q.** For `Cc1cc(Nc2cc(N3CCC3)nc(Sc3ccc(N)cc3)n2)[nH]n1` [Compound 108], which Ki [1, 3] is on record?
**A.** 5 to 200 nM

**Q.** And the Ki [2]?
**A.** 50 to 2000 nM

**Q.** Which Ki [1] does the source give for `Cc1cc(Nc2cc(N3CCC3)nc(Sc3ccc(C(=O)NCc4ccccc4)cc3)n2)n[nH]1` [Compound 19] here?
**A.** 5 to 200 nM

**Q.** And the Ki [2]?
**A.** ≤ 10 nM

**Q.** `Cc1cc(Nc2cc(N3CCC3)nc(Sc3ccc(C(=O)Nc4ccccc4Cl)cc3)n2)[nH]n1` [Compound 48] was tested. Which Ki [1, 3] did it give?
**A.** 1 to 5 nM

**Q.** What about the Ki [2] of the same molecule?
**A.** ≤ 10 nM
